Each compound was assayed against T1, human acetyl-CoA carboxylase 2 (ACC2) (Homo sapiens, UniProt O00763) (assay: Acetyl-CoA carboxylase enzyme assay (malonyl-CoA formation by LC/MS/MS)). Conditions: recombinant human ACC2 (aa 144-2458); read-out: IC50 ACC2.
T1 construct: The cDNA encoding amino acids 144 to 2458 of human acetyl-CoA carboxylase 2; made in house; host or cells: Sf9 insect cells (baculovirus, pFastBac1)
Assay type: biochemical
Summary of the method: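 Malonyl-CoA formation was read by LC/MS/MS MRM against a [13C3]-malonyl-CoA internal standard, after acetic acid quench. The enzyme was baculovirus/Sf9-expressed human ACC2 residues 144–2458, given 15 minutes room-temperature compound preincubation in HEPES pH 7.5 buffer with MgCl2, citrate and DTT. Substrate solution held 50 μM acetyl-CoA, 120 μM ATP and 2 mM KHCO3.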

T1 sequence (O00763 144-2458): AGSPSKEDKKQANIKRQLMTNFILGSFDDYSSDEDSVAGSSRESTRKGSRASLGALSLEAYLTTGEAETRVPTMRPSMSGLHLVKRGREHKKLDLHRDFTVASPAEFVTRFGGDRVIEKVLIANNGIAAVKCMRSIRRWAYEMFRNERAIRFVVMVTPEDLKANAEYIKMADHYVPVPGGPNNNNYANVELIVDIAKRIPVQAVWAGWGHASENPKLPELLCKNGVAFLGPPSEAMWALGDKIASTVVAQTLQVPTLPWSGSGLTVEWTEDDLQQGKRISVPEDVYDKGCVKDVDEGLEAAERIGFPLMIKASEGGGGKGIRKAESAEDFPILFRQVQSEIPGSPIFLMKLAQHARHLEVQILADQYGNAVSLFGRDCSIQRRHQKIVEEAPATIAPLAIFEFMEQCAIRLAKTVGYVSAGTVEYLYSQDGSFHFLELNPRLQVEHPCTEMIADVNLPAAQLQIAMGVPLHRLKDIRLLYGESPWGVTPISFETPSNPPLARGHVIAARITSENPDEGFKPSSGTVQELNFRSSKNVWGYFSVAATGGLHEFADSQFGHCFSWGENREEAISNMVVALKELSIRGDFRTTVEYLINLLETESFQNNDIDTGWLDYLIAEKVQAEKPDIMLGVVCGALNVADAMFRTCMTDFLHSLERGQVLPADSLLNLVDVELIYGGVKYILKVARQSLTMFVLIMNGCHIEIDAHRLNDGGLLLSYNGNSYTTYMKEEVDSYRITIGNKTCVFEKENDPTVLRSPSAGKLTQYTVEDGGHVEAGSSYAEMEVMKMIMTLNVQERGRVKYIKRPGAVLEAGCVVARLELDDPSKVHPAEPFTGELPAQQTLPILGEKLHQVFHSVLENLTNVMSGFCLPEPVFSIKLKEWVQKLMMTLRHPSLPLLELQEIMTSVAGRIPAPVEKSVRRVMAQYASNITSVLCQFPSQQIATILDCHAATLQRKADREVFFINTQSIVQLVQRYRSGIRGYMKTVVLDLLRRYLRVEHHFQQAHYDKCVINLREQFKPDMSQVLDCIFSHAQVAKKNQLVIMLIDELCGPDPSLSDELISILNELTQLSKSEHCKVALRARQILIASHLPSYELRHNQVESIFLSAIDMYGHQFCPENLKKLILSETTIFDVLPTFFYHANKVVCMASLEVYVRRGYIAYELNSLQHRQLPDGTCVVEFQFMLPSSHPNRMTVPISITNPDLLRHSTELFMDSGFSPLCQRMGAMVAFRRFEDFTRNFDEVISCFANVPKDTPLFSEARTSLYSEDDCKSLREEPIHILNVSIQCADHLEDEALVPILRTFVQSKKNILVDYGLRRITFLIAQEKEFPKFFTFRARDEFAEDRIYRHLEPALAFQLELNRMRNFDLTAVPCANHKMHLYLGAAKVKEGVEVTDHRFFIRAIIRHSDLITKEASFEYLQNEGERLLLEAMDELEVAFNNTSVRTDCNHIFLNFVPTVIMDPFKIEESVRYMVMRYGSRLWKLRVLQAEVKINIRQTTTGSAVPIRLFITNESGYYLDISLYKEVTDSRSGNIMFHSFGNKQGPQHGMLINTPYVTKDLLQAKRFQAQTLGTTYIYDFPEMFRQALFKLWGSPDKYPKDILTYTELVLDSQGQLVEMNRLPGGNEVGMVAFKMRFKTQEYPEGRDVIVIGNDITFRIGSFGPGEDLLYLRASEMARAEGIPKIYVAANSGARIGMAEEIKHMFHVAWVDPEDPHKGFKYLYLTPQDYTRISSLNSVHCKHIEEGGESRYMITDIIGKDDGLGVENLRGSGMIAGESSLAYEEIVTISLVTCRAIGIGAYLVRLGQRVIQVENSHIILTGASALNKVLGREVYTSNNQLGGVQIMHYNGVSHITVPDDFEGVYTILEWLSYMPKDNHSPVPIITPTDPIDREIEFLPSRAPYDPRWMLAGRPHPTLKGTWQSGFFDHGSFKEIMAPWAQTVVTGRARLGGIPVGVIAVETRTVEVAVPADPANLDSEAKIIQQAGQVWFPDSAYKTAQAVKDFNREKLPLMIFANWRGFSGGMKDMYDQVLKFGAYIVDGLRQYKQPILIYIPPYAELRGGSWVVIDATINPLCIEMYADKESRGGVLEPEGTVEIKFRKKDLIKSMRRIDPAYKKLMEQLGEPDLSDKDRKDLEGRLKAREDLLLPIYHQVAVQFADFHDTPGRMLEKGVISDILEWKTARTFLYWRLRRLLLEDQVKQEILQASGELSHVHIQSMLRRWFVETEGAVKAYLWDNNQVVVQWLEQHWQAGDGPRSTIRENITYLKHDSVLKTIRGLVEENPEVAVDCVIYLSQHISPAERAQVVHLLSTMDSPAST

| IC50 [nM] | Structure (SMILES) |
| --- | --- |
| 845 | CCOc1ccc2cc(S(=O)(=O)N[C@H]3CC[C@H](C(=O)N[C@H](C)c4ccccn4)CC3)ccc2n1 [Example 82, (1r,4R)-4-(2-ethoxyquinoline-6-sulfonamido)-N-((R)-1-(pyridin-2-yl)ethyl)cyclohexanecarboxamide] |
| 855 | C[C@@H](NC(=O)[C@H]1CC[C@H](NS(=O)(=O)c2ccc3nc(OC4COC4)ccc3c2)CC1)c1ccccn1 [Example 83, (1r,4R)-4-(2-(oxetan-3-yloxy)quinoline-6-sulfonamido)-N-((R)-1-(pyridin-2-yl)ethyl)cyclohexanecarboxamide] |
| 45 | CC(C)(C)OC(=O)N1CCN(C(=O)[C@H]2CC[C@H](NS(=O)(=O)c3cnc4ccccc4c3)CC2)[C@@H](c2ccccc2)C1 [Example 84, (S)-tert-butyl 3-phenyl-4-((1r,4S)-4-(quinoline-3-sulfonamido)cyclohexanecarbonyl)piperazine-1-carboxylate] |
| 143 | O=C([C@H]1CC[C@H](NS(=O)(=O)c2cnc3ccccc3c2)CC1)N1CCNC[C@@H]1c1ccccc1 [Example 85, N-((1S,4r)-4-((S)-2-phenylpiperazine-1-carbonyl)cyclohexyl)quinoline-3-sulfonamide] |
| 75 | Cn1c(-c2ccccc2)cc2cc(S(=O)(=O)N[C@H]3CC[C@H](C(=O)N4CCN[C@H](C(F)(F)F)C4)CC3)ccc21 [Example 86, 1-methyl-2-phenyl-N-((1S,4r)-4-((S)-3-(trifluoromethyl)piperazine-1-carbonyl)cyclohexyl)-1H-indole-5-sulfonamide] |
| 100 | Cn1c(-c2ccccc2)cc2cc(S(=O)(=O)N[C@H]3CC[C@H](C(=O)N4CCN[C@@H](C(F)(F)F)C4)CC3)ccc21 [Example 87, 1-methyl-2-phenyl-N-((1R,4r)-4-((R)-3-(trifluoromethyl)piperazine-1-carbonyl)cyclohexyl)-1H-indole-5-sulfonamide] |
| 50 | C[C@@H](NC(=O)[C@H]1CC[C@H](NS(=O)(=O)c2ccc3c(c2)c(C#N)cn3C)CC1)c1ccc(F)cc1 [Example 88, (1r,4R)-4-(3-cyano-1-methyl-1H-indole-5-sulfonamido)-N-((R)-1-(4-fluorophenyl)ethyl)cyclohexanecarboxamide] |
| 20 | Cn1cc(C#N)c2cc(S(=O)(=O)N[C@H]3CC[C@H](C(=O)N[C@@H](c4ccccc4)C(C)(C)O)CC3)ccc21 [Example 89, (1r,4S)-4-(3-cyano-1-methyl-1H-indole-5-sulfonamido)-N-((S)-2-hydroxy-2-methyl-1-phenylpropyl)cyclohexanecarboxamide] |
| 260 | Cn1c(-c2ccccc2)cc2cc(S(=O)(=O)N[C@H]3CC[C@H](C(=O)N4CC(C(=O)O)CCC4c4ccccc4)CC3)ccc21 (stereo partly drawn) [Example 90, 1-((1r,4r)-4-(1-methyl-2-phenyl-1H-indole-5-sulfonamido)cyclohexanecarbonyl)-6-phenylpiperidine-3-carboxylic acid] |
| 30 | Cn1c(-c2ccccc2)cc2cc(S(=O)(=O)N[C@H]3CC[C@H](C(=O)N4CC(C(=O)O)CCC4c4ccccc4)CC3)ccc21 (stereo partly drawn) [Example 91, 1-((1r,4r)-4-(1-methyl-2-phenyl-1H-indole-5-sulfonamido)cyclohexanecarbonyl)-6-phenylpiperidine-3-carboxylic acid] |
| < 10 | Cn1c(-c2ccccc2)cc2cc(S(=O)(=O)N[C@H]3CC[C@H](C(=O)N4CC(C(=O)O)CCC4c4ccccc4)CC3)ccc21 (stereo partly drawn) [Example 92, 1-((1r,4r)-4-(1-methyl-2-phenyl-1H-indole-5-sulfonamido)cyclohexanecarbonyl)-6-phenylpiperidine-3-carboxylic acid] |
| 545 | Cn1c(-c2ccccc2)cc2cc(S(=O)(=O)N[C@H]3CC[C@H](C(=O)N4CC(C(=O)O)CCC4c4ccccc4)CC3)ccc21 (stereo partly drawn) [Example 93, 1-((1r,4r)-4-(1-methyl-2-phenyl-1H-indole-5-sulfonamido)cyclohexanecarbonyl)-6-phenylpiperidine-3-carboxylic acid] |
| 75 | Cn1c(-c2ccccc2)cc2cc(S(=O)(=O)N[C@H]3CC[C@H](C(=O)N[C@H](CC(=O)OC(C)(C)C)c4ccccc4)CC3)ccc21 [Example 94, (R)-tert-butyl 3-((1r,4R)-4-(1-methyl-2-phenyl-1H-indole-5-sulfonamido)cyclohexanecarboxamido)-3-phenylpropanoate] |
| 30 | Cn1c(-c2ccccc2)cc2cc(S(=O)(=O)N[C@H]3CC[C@H](C(=O)N[C@H](CC(=O)O)c4ccccc4)CC3)ccc21 [Example 95, (R)-3-((1r,4R)-4-(1-methyl-2-phenyl-1H-indole-5-sulfonamido)cyclohexanecarboxamido)-3-phenylpropanoic acid] |
| 10 | CC(C)(O)[C@@H](NC(=O)[C@H]1CC[C@H](NS(=O)(=O)c2ccc3ccccc3c2)CC1)c1ccccc1 [Example 96, (1r,4S)-N-((S)-2-hydroxy-2-methyl-1-phenylpropyl)-4-(naphthalene-2-sulfonamido)cyclohexanecarboxamide] |
| < 10 | Cn1c(-c2ccccc2)cc2cc(S(=O)(=O)N[C@H]3CC[C@H](C(=O)N[C@@H](c4ccccc4)C(C)(C)C(=O)O)CC3)ccc21 [Example 97, (S)-2,2-dimethyl-3-((1r,4S)-4-(1-methyl-2-phenyl-1H-indole-5-sulfonamido)cyclohexanecarboxamido)-3-phenylpropanoic acid] |
| 4300 | COC(=O)[C@H]1CC[C@H](NS(=O)(=O)c2ccc3nc(-c4ccccc4)[nH]c3c2)CC1 [Example 98, (1r,4r)-methyl 4-(2-phenyl-1H-benzo[d]imidazole-6-sulfonamido)cyclohexanecarboxylate] |
| 494 | O=C(OCc1ccccc1)[C@H]1CC[C@H](NS(=O)(=O)c2ccc3nc(-c4ccccc4)[nH]c3c2)CC1 [Example 99, (1r,4r)-benzyl 4-(2-phenyl-1H-benzo[d]imidazole-6-sulfonamido)cyclohexanecarboxylate] |
| 760 | COc1ccc(-c2nc3ccc(S(=O)(=O)N[C@H]4CC[C@H](C(=O)OCc5ccccc5)CC4)cc3[nH]2)cc1 [Example 100, (1r,4r)-benzyl 4-(2-(4-methoxyphenyl)-1H-benzo[d]imidazole-6-sulfonamido)cyclohexanecarboxylate] |
| 1790 | COC(=O)c1ccc(COC(=O)[C@H]2CC[C@H](NS(=O)(=O)c3ccc4nc(-c5ccccc5)[nH]c4c3)CC2)cc1 [Example 101, methyl 4-(((1r,4r)-4-(2-phenyl-1H-benzo[d]imidazole-6-sulfonamido)cyclohexanecarbonyloxy)methyl)benzoate] |
| 45 | C[C@@H](NC(=O)[C@H]1CC[C@H](NS(=O)(=O)c2ccc3[nH]c(-c4ccccc4)cc3c2)CC1)c1ccc(F)cc1 [Example 102, (1r,4R)-N-((R)-1-(4-fluorophenyl)ethyl)-4-(2-phenyl-1H-indole-5-sulfonamido)cyclohexanecarboxamide] |
| 38 | CC(C)(C)OC(=O)N1CCN(c2ccc(-c3nc4cc(S(=O)(=O)N[C@H]5CC[C@H](C(=O)N6CCOCC6)CC5)ccc4[nH]3)cc2)CC1 [Example 103, tert-butyl 4-(4-(5-(N-((1r,4r)-4-(morpholine-4-carbonyl)cyclohexyl)sulfamoyl)-1H-benzo[d]imidazol-2-yl)phenyl)piperazine-1-carboxylate] |
| 20 | O=C([C@H]1CC[C@H](NS(=O)(=O)c2ccc3[nH]c(-c4ccc(N5CCNCC5)cc4)nc3c2)CC1)N1CCOCC1 [Example 104, N-((1r,4r)-4-(morpholine-4-carbonyl)cyclohexyl)-2-(4-(piperazin-1-yl)phenyl)-1H-benzo[d]imidazole-5-sulfonamide] |
| 252 | C[C@@H](NC(=O)[C@H]1CC[C@H](NS(=O)(=O)c2cnc3ccccc3c2)CC1)c1ccc(F)cc1 [Example 105, (1r,4R)-N-((R)-1-(4-fluorophenyl)ethyl)-4-(quinoline-3-sulfonamido)cyclohexanecarboxamide] |
| 388 | CC(=O)N1CCc2cc(S(=O)(=O)N[C@H]3CC[C@H](C(=O)N[C@H](C)c4ccc(F)cc4)CC3)ccc21 [Example 106, (1r,4R)-4-(1-acetylindoline-5-sulfonamido)-N-((R)-1-(4-fluorophenyl)ethyl)cyclohexanecarboxamide] |
| 205 | C[C@@H](NC(=O)[C@H]1CC[C@H](NS(=O)(=O)c2ccc3[nH]cnc3c2)CC1)c1ccc(F)cc1 [Example 107, (1r,4R)-4-(1H-benzo[d]imidazole-5-sulfonamido)-N-((R)-1-(4-fluorophenyl)ethyl)cyclohexanecarboxamide] |
| 1260 | C[C@@H](NC(=O)[C@H]1CC[C@H](NS(=O)(=O)c2ccc3[nH]c([C@@H]4CNCCN4)nc3c2)CC1)c1ccc(F)cc1 [Example 108, (1r,4R)-N-((R)-1-(4-fluorophenyl)ethyl)-4-(2-((S)-piperazin-2-yl)-1H-benzo[d]imidazole-5-sulfonamido)cyclohexanecarboxamide] |
| 321 | C[C@@H](NC(=O)[C@H]1CC[C@H](NS(=O)(=O)c2ccc3c(c2)ncn3C)CC1)c1ccc(F)cc1 [Example 109, (1r,4R)-N-((R)-1-(4-fluorophenyl)ethyl)-4-(1-methyl-1H-benzo[d]imidazole-5-sulfonamido)cyclohexanecarboxamide] |
| 290 | C[C@@H](NC(=O)[C@H]1CC[C@H](NS(=O)(=O)c2ccc3c(c2)CCC(=O)N3)CC1)c1ccc(F)cc1 [Example 110, (1r,4R)-N-((R)-1-(4-fluorophenyl)ethyl)-4-(2-oxo-1,2,3,4-tetrahydroquinoline-6-sulfonamido)cyclohexanecarboxamide] |
| 139 | C[C@@H](NC(=O)[C@H]1CC[C@H](NS(=O)(=O)c2ccc3ncccc3c2)CC1)c1ccc(F)cc1 [Example 111, (1r,4R)-N-((R)-1-(4-fluorophenyl)ethyl)-4-(quinoline-6-sulfonamido)cyclohexanecarboxamide] |

From US8697739B2, “Bicyclic acetyl-CoA carboxylase inhibitors and uses thereof” (Novartis AG, priority 2010, dated 2014)
